From ChEMBL document CHEMBL1201862, “PubChem BioAssay data set” (2004)
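Each compound was tested at five concentrations against cells in 96-well plates for 48 hours. GI50 marks 50% less growth.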 Activity calls are given as the source filed them. Cut-off read from the data, not from the text of the source: active = GI50 up to about 1.1 µM and inactive = higher.

Experiments:
Test in all cases: growth of human tumour cells (NCI), 48 h
786-0 = tested on: 786-0
A498 = tested on: A498
A549 = tested on: A549
ACHN = tested on: ACHN
BT-549 = tested on: BT-549
CAKI-1 = tested on: CAKI-1
CCRF-CEM = tested on: CCRF-CEM
COLO 205 = tested on: COLO 205
DU-145 = tested on: DU-145
EKVX = tested on: EKVX
HCC 2998 = tested on: HCC 2998
HCT-116 = tested on: HCT-116
HCT-15 = tested on: HCT-15
HL-60 = tested on: HL-60
HOP-62 = tested on: HOP-62
HOP-92 = tested on: HOP-92
HT-29 = tested on: HT-29
Hs-578T = tested on: Hs-578T
IGROV-1 = tested on: IGROV-1
KM12 = tested on: KM12
M14 = tested on: M14
MCF7 = tested on: MCF7
MDA-MB-231 = tested on: MDA-MB-231
MDA-MB-435 = tested on: MDA-MB-435
MDA-N = tested on: MDA-N
MOLT-4 = tested on: MOLT-4
Malme-3M = tested on: Malme-3M
NCI-H226 = tested on: NCI-H226
NCI-H23 = tested on: NCI-H23
NCI-H460 = tested on: NCI-H460
NCI-H522 = tested on: NCI-H522
NCI/ADR-RES = tested on: NCI/ADR-RES
OVCAR-3 = tested on: OVCAR-3
OVCAR-4 = tested on: OVCAR-4
OVCAR-5 = tested on: OVCAR-5
OVCAR-8 = tested on: OVCAR-8
PC-3 = tested on: PC-3
RPMI-8226 = tested on: RPMI-8226
RXF 393 = tested on: RXF 393
SF-268 = tested on: SF-268
SF-295 = tested on: SF-295
SF-539 = tested on: SF-539
SK-MEL-28 = tested on: SK-MEL-28
SK-MEL-2 = tested on: SK-MEL-2
SK-MEL-5 = tested on: SK-MEL-5
SK-OV-3 = tested on: SK-OV-3
SN12C = tested on: SN12C
SNB-19 = tested on: SNB-19
SNB-75 = tested on: SNB-75
SW-620 = tested on: SW-620
T47D = tested on: T47D
TK-10 = tested on: TK-10
U-251 = tested on: U-251
UACC-257 = tested on: UACC-257
UACC-62 = tested on: UACC-62
UO-31 = tested on: UO-31
K562 = tested on: K562
LOX IMVI = tested on: LOX IMVI

SMILES: COc1cc2c(cc1OC)C1C(O)C(OC)C=C3CC[N+](C)(C2)C31 (centres undefined)
- GI50 (786-0): > 100 µM (inactive)
- GI50 (A498): > 100 µM (inactive)
- GI50 (A549): > 100 µM (inactive)
- GI50 (ACHN): > 100 µM (inactive)
- GI50 (BT-549): > 100 µM (inactive)
- GI50 (CAKI-1): > 100 µM (inactive)
- GI50 (CCRF-CEM): > 100 µM (inactive)
- GI50 (COLO 205): > 100 µM (inactive)
- GI50 (DU-145): > 100 µM (inactive)
- GI50 (EKVX): > 100 µM (inactive)
- GI50 (HCC 2998): > 100 µM (inactive)
- GI50 (HCT-116): > 100 µM (inactive)
- GI50 (HCT-15): > 100 µM
- GI50 (HL-60): > 100 µM (inactive)
- GI50 (HOP-62): > 100 µM (inactive)
- GI50 (HOP-92): > 100 µM (inactive)
- GI50 (HT-29): > 100 µM (inactive)
- GI50 (Hs-578T): > 100 µM (inactive)
- GI50 (IGROV-1): > 100 µM (inactive)
- GI50 (KM12): > 100 µM (inactive)
- GI50 (M14): > 100 µM (inactive)
- GI50 (MCF7): > 100 µM (inactive)
- GI50 (MDA-MB-231): > 100 µM (inactive)
- GI50 (MDA-MB-435): > 100 µM (inactive)
- GI50 (MDA-N): > 100 µM (inactive)
- GI50 (MOLT-4): > 100 µM (inactive)
- GI50 (Malme-3M): > 100 µM (inactive)
- GI50 (NCI-H226): > 100 µM (inactive)
- GI50 (NCI-H23): > 100 µM (inactive)
- GI50 (NCI-H460): > 100 µM (inactive)
- GI50 (NCI-H522): > 100 µM (inactive)
- GI50 (NCI/ADR-RES): > 100 µM (inactive)
- GI50 (OVCAR-3): > 100 µM (inactive)
- GI50 (OVCAR-4): > 100 µM (inactive)
- GI50 (OVCAR-5): > 100 µM (inactive)
- GI50 (OVCAR-8): > 100 µM (inactive)
- GI50 (PC-3): > 100 µM (inactive)
- GI50 (RPMI-8226): > 100 µM (inactive)
- GI50 (RXF 393): > 100 µM (inactive)
- GI50 (SF-268): > 100 µM (inactive)
- GI50 (SF-295): > 100 µM (inactive)
- GI50 (SF-539): > 100 µM (inactive)
- GI50 (SK-MEL-28): > 100 µM (inactive)
- GI50 (SK-MEL-2): > 100 µM (inactive)
- GI50 (SK-MEL-5): > 100 µM (inactive)
- GI50 (SK-OV-3): > 100 µM (inactive)
- GI50 (SN12C): > 100 µM (inactive)
- GI50 (SNB-19): > 100 µM (inactive)
- GI50 (SNB-75): > 100 µM (inactive)
- GI50 (SW-620): > 100 µM (inactive)
- GI50 (T47D): > 100 µM (inactive)
- GI50 (TK-10): > 100 µM (inactive)
- GI50 (U-251): > 100 µM (inactive)
- GI50 (UACC-257): > 100 µM (inactive)
- GI50 (UACC-62): > 100 µM (inactive)
- GI50 (UO-31): > 100 µM (inactive)

SMILES: O=c1c2ccccc2sc2ccccc12
- GI50 (786-0): > 100 µM (inactive)
- GI50 (A498): > 100 µM (inactive)
- GI50 (A549): > 100 µM (inactive)
- GI50 (ACHN): > 100 µM (inactive)
- GI50 (BT-549): > 100 µM (inactive)
- GI50 (CAKI-1): > 100 µM (inactive)
- GI50 (CCRF-CEM): > 100 µM (inactive)
- GI50 (COLO 205): > 100 µM (inactive)
- GI50 (DU-145): > 100 µM (inactive)
- GI50 (EKVX): > 100 µM (inactive)
- GI50 (HCC 2998): > 100 µM (inactive)
- GI50 (HCT-116): > 100 µM (inactive)
- GI50 (HCT-15): > 100 µM
- GI50 (HL-60): > 100 µM (inactive)
- GI50 (HOP-62): > 100 µM (inactive)
- GI50 (HOP-92): > 100 µM (inactive)
- GI50 (HT-29): > 100 µM (inactive)
- GI50 (Hs-578T): > 100 µM (inactive)
- GI50 (IGROV-1): > 100 µM (inactive)
- GI50 (K562): > 100 µM (inactive)
- GI50 (KM12): > 100 µM (inactive)
- GI50 (LOX IMVI): > 100 µM (inactive)
- GI50 (M14): > 100 µM (inactive)
- GI50 (MCF7): > 100 µM (inactive)
- GI50 (MDA-MB-231): > 100 µM (inactive)
- GI50 (MDA-MB-435): > 100 µM (inactive)
- GI50 (MDA-N): > 100 µM (inactive)
- GI50 (MOLT-4): > 100 µM (inactive)
- GI50 (Malme-3M): > 100 µM (inactive)
- GI50 (NCI-H226): > 100 µM (inactive)
- GI50 (NCI-H23): > 100 µM (inactive)
- GI50 (NCI-H460): > 100 µM (inactive)
- GI50 (NCI-H522): > 100 µM (inactive)
- GI50 (NCI/ADR-RES): > 100 µM (inactive)
- GI50 (OVCAR-3): > 100 µM (inactive)
- GI50 (OVCAR-4): > 100 µM (inactive)
- GI50 (OVCAR-5): > 100 µM (inactive)
- GI50 (OVCAR-8): > 100 µM (inactive)
- GI50 (PC-3): > 100 µM (inactive)
- GI50 (RPMI-8226): > 100 µM (inactive)
- GI50 (RXF 393): > 100 µM (inactive)
- GI50 (SF-268): > 100 µM (inactive)
- GI50 (SF-295): > 100 µM (inactive)
- GI50 (SF-539): > 100 µM (inactive)
- GI50 (SK-MEL-28): > 100 µM (inactive)
- GI50 (SK-MEL-2): > 100 µM (inactive)
- GI50 (SK-MEL-5): > 100 µM (inactive)
- GI50 (SK-OV-3): > 100 µM (inactive)
- GI50 (SN12C): > 100 µM (inactive)
- GI50 (SNB-19): > 100 µM (inactive)
- GI50 (SNB-75): > 100 µM (inactive)
- GI50 (SW-620): > 100 µM (inactive)
- GI50 (T47D): > 100 µM (inactive)
- GI50 (TK-10): > 100 µM (inactive)
- GI50 (U-251): 14.9 µM (inactive)
- GI50 (UACC-257): > 100 µM (inactive)
- GI50 (UACC-62): > 100 µM (inactive)
- GI50 (UO-31): > 100 µM (inactive)
